Source: patent US20230227484A1, “PYRIMIDINE COMPOUND AS AXL INHIBITOR” (NANJING CHIA TAI TIANQING PHARMACEUTICAL CO., LTD., priority 2020, published 2023)

Target: T1, AXL kinase (Homo sapiens, UniProt P30530)
T1 construct: purchased Carna 08-107
T1 sequence (P30530 473-894 limits assumed): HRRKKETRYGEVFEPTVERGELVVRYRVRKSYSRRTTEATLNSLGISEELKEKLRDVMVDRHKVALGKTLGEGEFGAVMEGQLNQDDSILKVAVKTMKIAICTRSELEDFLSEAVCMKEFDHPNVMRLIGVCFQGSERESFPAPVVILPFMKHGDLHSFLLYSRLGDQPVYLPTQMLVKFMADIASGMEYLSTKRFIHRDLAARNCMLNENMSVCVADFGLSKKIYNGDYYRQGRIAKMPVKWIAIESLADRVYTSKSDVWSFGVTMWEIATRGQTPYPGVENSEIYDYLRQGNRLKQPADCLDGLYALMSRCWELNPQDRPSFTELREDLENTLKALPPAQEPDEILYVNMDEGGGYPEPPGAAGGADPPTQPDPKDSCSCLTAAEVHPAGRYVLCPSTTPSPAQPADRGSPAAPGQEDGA
Assay: Inhibitory activity of compound against AXL kinase (HTRF KinEASE)
Assay type: biochemical
Conditions: AXL enzyme (Carna, 08-107), ATP 15 μM; "<" means below detection limit of the test
Protocol: a) AXL enzyme (Carna, 08-107) configuration and addition: a 1×enzyme buffer (200 μL of Enzymatic buffer kinase 5×, 10 μL of 500 mM MgCl2, 10 μL of 100 mM DTT and 6.26 μL of 2500 nM SEB are added with […] of H2O, and prepared into 1 ml of 1× enzyme buffer) is used. AXL enzyme is diluted from 33.33 ng/uL to 0.027 ng/μL (1.67×, final conc.=0.016 ng/uL), a BioTek (MultiFlo FX) automatic liquid dispenser is used, and 6 μL of enzyme solution having a 1.67-fold final concentration is added respectively to compound wells and positive control wells; and 6 μL of 1×Enzymatic buffer is added to negative control wells.
b) Compound preparation and addition: the compounds and positive drugs prepared in the examples are diluted from 10 mM to 100 μM by DMSO, and titrated with a compound titrator (Tecan, D300e). The titrated solution is automatically sprayed by the titrator to each well to reach a required concentration, wherein the first concentration is 1 μM, and after ½ log dilution, a total of 8 concentrations are obtained. The resulting mixture is centrifuged at 2500 rpm for 30 s and incubated at room temperature for 15 min.
c) Preparation and addition of ATP and substrate: ATP (Sigma, A7699) is diluted with 1× enzyme buffer from 10 mM to 75 μM (5×), and the final concentration is 15 μM; the substrate TK Substrate 3-biotin (Cisbio, 61TK0BLC) is diluted with 1× enzyme buffer from 500 μM to 5 μM (5×), andthe final concentration is […]; ATP and the substrate are mixed in equal volume to obtain a mixed solution; the mixed solution is added to each well at 4 μL by using a BioTek automatic dispenser; centrifuged at 2500 rpm for 30 s, and reacted at 25° C. for 45 min.
d) Pirparation and addition of detection reagent: Streptavidin-XL665 (Cisbio, 610SAXLG) is diluted with HTRF KinEASE detection buffer (cisbio) from 16.67 μM to 250 nM (4×), and the final concentration is 62.5 nM; TK Antibody-Cryptate (Cisbio) is diluted with HTRF KinEASE detection buffer (cisbio) from 100× to 5×, and the final concentration is 1×; XL665 and Antibody are mixed in equal volume; the mixed solution is added to each well at 10 μL by using the BioTek automatic dispenser, centrifuged at 2500 rpm for 30 s, and reacted at 25° C. for 1 h. After the reaction is completed, the resulting product is detected by a multi-function plate reader HTR1p
GraphPad Prism 5 software log (inhibitor) vs. response-Variable slope is used to fit a dose-response curve to obtain the IC50 value of the compound to the inhibition of AXL kinase.
The calculation formula of the inhibition rate is as follows: […]

| IC50 | SMILES |
| --- | --- |
| 1.47 nM | CNC(=O)c1c(Nc2nc(Nc3ccc4c(c3)CC[C@@H](N3CCCC3)CC4)ncc2Cl)ccnc1OC [Example 44, (S)-4-((5-chloro-2-((7-(pyrrolidin-1-yl)-6,7,8,9-tetrahydro-5H-benzo[7]annulen-2-yl)amino)pyrimidin-4-yl)amino)-2-methoxyl-N-methylnicotinamide] |
| 5.15 nM | CNC(=O)c1ncccc1Nc1nc(Nc2ccc3c(c2)CC[C@@H](N2CCCC2)CC3)ncc1Cl [Example 33, (S)-3-((5-chloro-2-((7-(pyrrolidin-1-yl)-6,7,8,9-tetrahydro-5H-benzo[7]annulen-2-yl)amino)pyrimidin-4-yl)amino)-N-methylpicolinamide] |
| 27.9 nM | Cc1cnc(-c2ccccc2Nc2nc(Nc3ccc4c(c3)CC[C@@H](N3CCCC3)CC4)ncc2Cl)o1 [Example 17, (S)-5-chloro-N^4-(2-(5-methyloxazol-2-yl)phenyl)-N^2-(7-(pyrrolidin-1-yl)-6,7,8,9-tetrahydro-5H-benzo[7]annulen-2-yl)pyrimidine-2,4-diamine] |
| 2.04 nM | [2H]C([2H])([2H])P(=O)(c1ccccc1Nc1nc(Nc2ccc3c(c2)CC[C@@H](N2CCCC2)CC3)ncc1Cl)C([2H])([2H])[2H] [Example 56, (S)-(2-((5-chloro-2-((7-(pyrrolidin-1-yl)-6,7,8,9-tetrahydro-5H-benzo[7]annulen-2-yl)amino)pyrimidin-4-yl)amino)phenyl)bis(methyl-d3) phosphine oxide] |
| 9.24 nM | CP(C)(=O)c1cc(N2CC3(COC3)C2)ccc1Nc1nc(Nc2ccc3c(c2)CC[C@@H](N2CCCC2)CC3)ncc1Cl [Example 119, (S)-(2-((5-chloro-2-((7-(pyrrolidin-1-yl)-6,7,8,9-tetrahydro-5H-benzo[7]annulen-2-yl)amino)pyrimidin-4-yl)amino)-5-(2-oxa-6-azaspiro[3.3]heptan-6-yl)phenyl)dimethyl phosphine oxide] |
| 8.18 nM | N#CCc1cccc(Nc2nc(Nc3ccc4c(c3)CC[C@@H](N3CCCC3)CC4)ncc2Cl)c1 [Example 11, (S)-2-(3-((5-chloro-2-((7-(pyrrolidin-1-yl)-6,7,8,9-tetrahydro-5H-benzo[7]annulen-2-yl)amino)pyrimidin-4-yl)amino)phenyl)acetonitrile] |
| 13.4 nM | CN(C)S(=O)(=O)c1cccc(Nc2nc(Nc3ccc4c(c3)CC[C@@H](N3CCCC3)CC4)ncc2Cl)c1 [Example 2, (S)-3-((5-chloro-2-((7-(pyrrolidin-1-yl)-6,7,8,9-tetrahydro-5H-benzo[7]annulen-2-yl)amino)pyrimidin-4-yl)amino)-N,N-dimethyl benzenesulfonamide] |
| 12.3 nM | Cc1ccc(P(C)(C)=O)c(Nc2nc(Nc3ccc4c(c3)CC[C@@H](N3CCCC3)CC4)ncc2Cl)c1 [Example 130, (S)-(2-((5-chloro-2-((7-(pyrrolidin-1-yl)-6,7,8,9-tetrahydro-5H-benzo[7]annulen-2-yl)amino)pyrimidin-4-yl)amino)-4-methylphenyl)dimethyl phosphine oxide] |
| 23.6 nM | CN(C)S(=O)(=O)c1ccc(Nc2nc(Nc3ccc4c(c3)CC[C@@H](N3CCCC3)CC4)ncc2Cl)cc1 [Example 3, (S)-4-((5-chloro-2-((7-(pyrrolidin-1-yl)-6,7,8,9-tetrahydro-5H-benzo[7]annulen-2-yl)amino)pyrimidin-4-yl)amino)-N,N-dimethyl benzenesulfonamide] |
| 2.16 nM | CS(=N)(=O)c1ccccc1Nc1nc(Nc2ccc3c(c2)CC[C@@H](N2CCCC2)CC3)ncc1Cl (stereo partly drawn) [Example 50, (2-((5-chloro-2-(((S)-7-(pyrrolidin-1-yl)-6,7,8,9-tetrahydro-5H-benzo[7]annulen-2-yl)amino)pyrimidin-4-yl)amino)phenyl)(imino)(methyl)-λ^6-sulfanone] |
| 3.1 nM | CP(C)(=O)c1cc(C#N)ccc1Nc1nc(Nc2ccc3c(c2)CC[C@@H](N2CCCC2)CC3)ncc1Cl [Example 54, (S)-4-((5-chloro-2-((7-(pyrrolidin-1-yl)-6,7,8,9-tetrahydro-5H-benzo[7]annulen-2-yl)amino)pyrimidin-4-yl)amino)-3-(dimethylphosphoryl)benzonitrile] |
| 6.53 nM | CNC(=O)c1cccnc1Nc1nc(Nc2ccc3c(c2)CC[C@@H](N2CCCC2)CC3)ncc1Cl [Example 21, (S)-2-((5-chloro-2-((7-(pyrrolidin-1-yl)-6,7,8,9-tetrahydro-5H-benzo[7]annulen-2-yl)amino)pyrimidin-4-yl)amino)-N-methylnicotinamide] |
| 1.82 nM | CP(C)(=O)c1cc(OC2CC2)ccc1Nc1nc(Nc2ccc3c(c2)CC[C@@H](N2CCCC2)CC3)ncc1Cl [Example 128, (S)-(2-((5-chloro-2-((7-(pyrrolidin-1-yl)-6,7,8,9-tetrahydro-5H-benzo[7]annulen-2-yl)amino)pyrimidin-4-yl)amino)-5-cyclopropoxyphenyl)dimethyl phosphine oxide] |
| 21.9 nM | Clc1cnc(Nc2ccc3c(c2)CC[C@@H](N2CCCC2)CC3)nc1Nc1cccc2c1OCO2 [Example 9, (S)-4-(benzo[d][1,3]dioxo-4-yl)-5-chloro-2-(7-(pyrrolidin-1-yl)-6,7,8,9-tetrahydro-5H-benzo[7]annulen-2-yl)pyrimidine-2,4-diamine] |
| 2.53 nM | COC(C)(C)c1ccc(Nc2nc(Nc3ccc4c(c3)CC[C@@H](N3CCCC3)CC4)ncc2Cl)c(P(C)(C)=O)c1 [Example 139, (S)-(2-((5-chloro-2-((7-(pyrrolidin-1-yl)-6,7,8,9-tetrahydro-5H-benzo[7]annulen-2-yl)amino)pyrimidin-4-yl)amino)-5-(2-methoxypropan-2-yl)phenyl)dimethyl phosphine oxide] |
| 2.91 nM | CP(C)(=O)c1cc(C2(C#N)CC2)ccc1Nc1nc(Nc2ccc3c(c2)CC[C@@H](N2CCCC2)CC3)ncc1Cl [Example 140, (S)-1-(4-((5-chloro-2-((7-(pyrrolidin-1-yl)-6,7,8,9-tetrahydro-5H-benzo[7]annulen-2-yl)amino)pyrimidin-4-yl)amino)-3-(dimethylphosphoryl)phenyl)cyclopropane-1-carbonitrile] |
| 6.27 nM | [2H]C([2H])([2H])P(=O)(c1cc(F)ccc1Nc1nc(Nc2ccc3c(c2)CC[C@@H](N2CCCC2)CC3)ncc1Cl)C([2H])([2H])[2H] [Example 57, (S)-(2-((5-chloro-2-((7-(pyrrolidin-1-yl)-6,7,8,9-tetrahydro-5H-benzo[7]annulen-2-yl)amino)pyrimidin-4-yl)amino)-5-fluorophenyl)bis(methyl-d3) phosphine oxide] |
| 7.21 nM | CNC(=O)c1ncsc1Nc1nc(Nc2ccc3c(c2)CC[C@@H](N2CCCC2)CC3)ncc1Cl [Example 26, (S)-5-((5-chloro-2-((7-(pyrrolidin-1-yl)-6,7,8,9-tetrahydro-5H-benzo[7]annulen-2-yl)amino)pyrimidin-4-yl)amino)-N-methylthiazole-4-carboxamide] |
| 6.24 nM | COCCNC(=O)c1ccccc1Nc1nc(Nc2ccc3c(c2)CC[C@@H](N2CCCC2)CC3)ncc1Cl [Example 38, (S)-2-((5-chloro-2-((7-(pyrrolidin-1-yl)-6,7,8,9-tetrahydro-5H-benzo[7]annulen-2-yl)amino)pyrimidin-4-yl)amino)-N-(2-methoxyethyl)benzamide] |
